Source: ChEMBL document CHEMBL1122705, “Synthesis and pharmacological evaluation of an 8 beta-bis(2-chloroethyl)amino opiate as a nonequilibrium opioid receptor probe” (J Med Chem, 1984)

Assays:
Format in all cases: functional
Mus musculus [1] = species: Mus musculus; experiment: Agonist activity in mouse vas deferens at a concentration of 200 nM expressed as percent maximal response
Cavia porcellus [2] = species: Cavia porcellus; experiment: Agonist activity in guinea pig ileum at a concentration of 1 uM expressed as percent maximal response
Mus musculus [3] = species: Mus musculus; experiment: Inhibitory activity in mouse vas deferens, n=4
Cavia porcellus [4] = species: Cavia porcellus; experiment: Inhibitory activity in guinea pig longitudinal muscle preparation, n=2; details: Muscle tissue

CN1CCC23c4c5ccc(O)c4O[C@H]2C=C[C@H](N(CCCl)CCCl)[C@H]3C1C5 (some centres undefined) was tested, and the Activity (Mus musculus [1]) was 25% and the Activity (Cavia porcellus [2]) was 15%.

CN1CCC23c4c5ccc(O)c4O[C@H]2C=C[C@H](N=[N+]=[N-])[C@H]3C1C5 (some centres undefined) showed an IC50 (Mus musculus [3]) of 46 nM and an IC50 (Cavia porcellus [4]) of 335 nM.
